In patent publication US6534447B1, “Herbicidal pyridine compounds” (BASF Aktiengesellschaft, priority 1999, dated 2003):

Tests used:
Assay type in all cases: in vivo
weeds = experiment: Post-emergence herbicidal evaluation, overall weed control; settings: down to the lowest dose of 0.025 kg/ha
Protocol: These acetone solutions are diluted with water and the resulting formulations applied at dosage levels equivalent of about 0.025 to 0.4 kg per hectare of test compound per pot. After spraying the plants are placed on greenhouse benches and are cared for in the usual manner, commensurate with conventional greenhouse practices. From 3 weeks after treatment, the seedling plants are examined and rated according to the rating system provided above. A rating 0 indicates growth as untreated control, a rating 9 indicates death.

[1] = system: Triticum aestivum (TRZAW, winter wheat); experiment: Pre-emergence herbicidal evaluation (crop); settings: 3 weeks after treatment
Method in brief: (§1)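 Soil-mixed seed sown in pots; spray immediately post-planting, aq. acetone, ~0.025–0.4 kg/ha; greenhouse, routine watering; visual score from 3 wk after treatment.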

Zea mays (ZEAMX, maize) = experiment: Pre-emergence herbicidal evaluation (crop); settings: 3 weeks after treatment
Method in brief: as §1

[2] = system: Glycine max (GLXMA, soyabeans); experiment: Pre-emergence herbicidal evaluation (crop); settings: 3 weeks after treatment
Method in brief: as §1

eight weed species = experiment: Pre-emergence herbicidal evaluation, overall weed control; settings: crop selective dose of 0.1 kg/ha
From the text: The pre-emergence herbicidal activity of the compounds of the present invention is exemplified by the following test in which the seeds of a variety of monocotyledonous and dicotyledonous plants are seperately mixed with potting soil and planted on top of approximately one inch of soil in separate post. After planting, the pots are sprayed with the selected aqueous acetone solution. containing test compound in sufficient quantity to provide the equivalent of about 0.025 to 0.4 kg per hectare of test compound per pot. The treated pots are then placed on greenhouse benches, watered and cared for in accordance with conventional greenhouse procedures. From 3 weeks after treatment, the tests are terminated and each pot is examined and rated according to the rating system set forth below.
Thus, there is evidence for the good potential of the compounds of the invention for excellent cross spectrum control of both grasses and broadleaf weeds in key crops.

[3] = system: Alopecurus myosuroides (ALOMY, black grass); experiment: Post-emergence herbicidal evaluation; settings: 3 weeks after treatment
Method in brief: (§2)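 Injury is scored on a 0–9 scale, where 0 means growth as in untreated controls and 9 means death, from 3 weeks after spraying. Test compound, in acetone diluted with water, is applied at dosages equivalent to about 0.025 to 0.4 kg per hectare per pot, with plants then maintained in the greenhouse.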

[4] = system: Galium aparine (GALAP, cleaver); experiment: Post-emergence herbicidal evaluation; settings: 3 weeks after treatment
Method in brief: as §2

[5] = system: Echinochloa grus galli (ECHCG, barnyard grass); experiment: Post-emergence herbicidal evaluation; settings: 3 weeks after treatment
Method in brief: as §2

[6] = system: Matricaria inodora (MATIN, mayweed); experiment: Post-emergence herbicidal evaluation; settings: 3 weeks after treatment
Method in brief: as §2

[7] = system: Ipomoea hederacea (IPOHE, morning glory); experiment: Post-emergence herbicidal evaluation; settings: 3 weeks after treatment
Method in brief: as §2

[8] = system: Stellaria media (STEME, chickweed); experiment: Post-emergence herbicidal evaluation; settings: 3 weeks after treatment
Method in brief: as §2

[9] = system: Setaria viridis (SETVI, green foxtail); experiment: Post-emergence herbicidal evaluation; settings: 3 weeks after treatment
Method in brief: as §2

[10] = system: Dolium multiflorum (LOLMU, ryegrass); experiment: Post-emergence herbicidal evaluation; settings: rate 0.100 kg/ha, 3 weeks after treatment
Method in brief: as §2

[11] = system: Abutilon theophrasti (ABUTH, velvetleaf); experiment: Post-emergence herbicidal evaluation; settings: 3 weeks after treatment
Method in brief: as §2

[12] = system: Alopecurus myosuroides (ALOMY, black grass); experiment: Pre-emergence herbicidal evaluation; settings: 3 weeks after treatment
Method in brief: as §1

[13] = system: Galium aparine (GALAP, cleaver); experiment: Pre-emergence herbicidal evaluation; settings: 3 weeks after treatment
Method in brief: as §1

[14] = system: Echinochloa grus galli (ECHCG, barnyard grass); experiment: Pre-emergence herbicidal evaluation; settings: 3 weeks after treatment
Method in brief: as §1

[15] = system: Matricaria inodora (MATIN, mayweed); experiment: Pre-emergence herbicidal evaluation; settings: 3 weeks after treatment
Method in brief: as §1

[16] = system: Ipomoea hederacea (IPOHE, morning glory); experiment: Pre-emergence herbicidal evaluation; settings: 3 weeks after treatment
Method in brief: as §1

[17] = system: Stellaria media (STEME, chickweed); experiment: Pre-emergence herbicidal evaluation; settings: 3 weeks after treatment
Method in brief: as §1

[18] = system: Setaria viridis (SETVI, green foxtail); experiment: Pre-emergence herbicidal evaluation; settings: 3 weeks after treatment
Method in brief: as §1

[19] = system: Abutilon theophrasti (ABUTH, velvetleaf); experiment: Pre-emergence herbicidal evaluation; settings: 3 weeks after treatment
Method in brief: as §1

Cc1cc(OCCCSC(F)(F)F)nc(Oc2ccnc(C(F)(F)F)c2)c1 [Example 53]
activity against weeds (in words) (weeds): high levels of activity
TRZAW rating ([1]; rate 0.025 kg/ha): 1 (1 - Trace effect)
TRZAW rating ([1]; rate 0.100 kg/ha): 2 (2 - Slight effect)
TRZAW rating ([1]; rate 0.400 kg/ha): 4 (4 - Injury)
ZEAMX rating (Zea mays (ZEAMX, maize); rate 0.025 kg/ha): 2 (2 - Slight effect)
ZEAMX rating (Zea mays (ZEAMX, maize); rate 0.100 kg/ha): 4 (4 - Injury)
ZEAMX rating (Zea mays (ZEAMX, maize); rate 0.400 kg/ha): 4 (4 - Injury)
GLXMA rating ([2]; rate 0.025 kg/ha): 4 (4 - Injury)
GLXMA rating ([2]; rate 0.100 kg/ha): 4 (4 - Injury)
GLXMA rating ([2]; rate 0.400 kg/ha): 6 (6 - Herbicidal effect)
weed control (in words) (eight weed species): complete control
ALOMY rating ([3]; rate 0.025 kg/ha): 6 (6 - Herbicidal effect)
ALOMY rating ([3]; rate 0.100 kg/ha): 8 (8 - Approaching complete kill)
ALOMY rating ([3]; rate 0.400 kg/ha): 9 (9 - Complete kill)
GALAP rating ([4]; rate 0.025 kg/ha): 6 (6 - Herbicidal effect)
GALAP rating ([4]; rate 0.100 kg/ha): 9 (9 - Complete kill)
GALAP rating ([4]; rate 0.400 kg/ha): 9 (9 - Complete kill)
ECHCG rating ([5]; rate 0.025 kg/ha): 9 (9 - Complete kill)
ECHCG rating ([5]; rate 0.100 kg/ha): 9 (9 - Complete kill)
ECHCG rating ([5]; rate 0.400 kg/ha): 9 (9 - Complete kill)
MATIN rating ([6]; rate 0.025 kg/ha): 6 (6 - Herbicidal effect)
MATIN rating ([6]; rate 0.100 kg/ha): 8 (8 - Approaching complete kill)
MATIN rating ([6]; rate 0.400 kg/ha): 8 (8 - Approaching complete kill)
IPOHE rating ([7]; rate 0.025 kg/ha): 9 (9 - Complete kill)
IPOHE rating ([7]; rate 0.100 kg/ha): 9 (9 - Complete kill)
IPOHE rating ([7]; rate 0.400 kg/ha): 9 (9 - Complete kill)
STEME rating ([8]; rate 0.025 kg/ha): 8 (8 - Approaching complete kill)
STEME rating ([8]; rate 0.100 kg/ha): 9 (9 - Complete kill)
STEME rating ([8]; rate 0.400 kg/ha): 9 (9 - Complete kill)
SETVI rating ([9]; rate 0.025 kg/ha): 9 (9 - Complete kill)
SETVI rating ([9]; rate 0.100 kg/ha): 9 (9 - Complete kill)
SETVI rating ([9]; rate 0.400 kg/ha): 9 (9 - Complete kill)
LOLMU rating [10]: 8 (8 - Approaching complete kill)
ABUTH rating ([11]; rate 0.025 kg/ha): 8 (8 - Approaching complete kill)
ABUTH rating ([11]; rate 0.100 kg/ha): 9 (9 - Complete kill)
ABUTH rating ([11]; rate 0.400 kg/ha): 9 (9 - Complete kill)
ALOMY rating ([12]; rate 0.025 kg/ha): 8 (8 - Approaching complete kill)
ALOMY rating ([12]; rate 0.100 kg/ha): 8 (8 - Approaching complete kill)
ALOMY rating ([12]; rate 0.400 kg/ha): 8 (8 - Approaching complete kill)
GALAP rating ([13]; rate 0.025 kg/ha): 4 (4 - Injury)
GALAP rating ([13]; rate 0.100 kg/ha): 8 (8 - Approaching complete kill)
GALAP rating ([13]; rate 0.400 kg/ha): 8 (8 - Approaching complete kill)
ECHCG rating ([14]; rate 0.025 kg/ha): 7 (7 - Good herbicidal effect)
ECHCG rating ([14]; rate 0.100 kg/ha): 8 (8 - Approaching complete kill)
ECHCG rating ([14]; rate 0.400 kg/ha): 9 (9 - Complete kill)
MATIN rating ([15]; rate 0.025 kg/ha): 8 (8 - Approaching complete kill)
MATIN rating ([15]; rate 0.100 kg/ha): 8 (8 - Approaching complete kill)
MATIN rating ([15]; rate 0.400 kg/ha): 9 (9 - Complete kill)
IPOHE rating ([16]; rate 0.025 kg/ha): 8 (8 - Approaching complete kill)
IPOHE rating ([16]; rate 0.100 kg/ha): 8 (8 - Approaching complete kill)
IPOHE rating ([16]; rate 0.400 kg/ha): 9 (9 - Complete kill)
STEME rating ([17]; rate 0.025 kg/ha): 9 (9 - Complete kill)
STEME rating ([17]; rate 0.100 kg/ha): 9 (9 - Complete kill)
STEME rating ([17]; rate 0.400 kg/ha): 9 (9 - Complete kill)
SETVI rating ([18]; rate 0.025 kg/ha): 8 (8 - Approaching complete kill)
SETVI rating ([18]; rate 0.100 kg/ha): 8 (8 - Approaching complete kill)
SETVI rating ([18]; rate 0.400 kg/ha): 8 (8 - Approaching complete kill)
ABUTH rating ([19]; rate 0.025 kg/ha): 9 (9 - Complete kill)
ABUTH rating ([19]; rate 0.100 kg/ha): 9 (9 - Complete kill)
ABUTH rating ([19]; rate 0.400 kg/ha): 9 (9 - Complete kill)
